# Test results published in patent US20260274875A1, “[…] COMPOUNDS, PREPARATION METHOD AND USE THEREOF” (HC SYNTHETIC PHARMACEUTICAL CO., LTD., priority 2022, published 2026).
# Like-named read-outs stand apart in the source and are kept apart here.
# Experiments:
# [1] = Solubility in water, methanol and isopropanol; format: physicochemical
# Experimental: The solubility in water, methanol, and isopropanol of the compounds of the present disclosure and the comparative compounds were measured separately.
# [2] = tested on: histamine-induced asthma in guinea pigs; test: Antiasthmatic effect on histamine-induced asthma in guinea pigs; format: in vivo, guinea pig; settings: 60 min after 1 mg/kg oral gavage; histamine hydrochloride spray; no asthma within 8 min counted as 8 min; X ± s, n = 5
# Experimental: The time point at which the guinea pigs developed asthma was recorded. The time of convulsion and fall was taken as the latency period. Guinea pigs with a latency period exceeding 180 seconds were not selected. […] The guinea pigs were administered by oral gavage at a dose of 2 mL/kg·bw. Sixty minutes after the administration, the guinea pigs were placed in bell jars, and histamine hydrochloride solution was sprayed under the same conditions as in the previous selection. The latency period for the onset of asthma was recorded. […] The results were processed statistically.
# [3] = tested on: isolated ileal smooth muscle of guinea pigs; test: Muscle tone of isolated ileal smooth muscle of guinea pigs (compound alone); design: species or system guinea pig; settings: 5 minutes after adding drug, no histamine; X ± s, n = 8
# Experimental: (§1) The guinea pig was knocked unconscious with a wooden stick, and the abdomen was immediately dissected to separate the ileum about 15 cm in length. The contents of the intestinal segment were flushed with Tyrode's solution and placed in Tyrode's solution at a constant temperature of 37° C. for later use, and oxygen was supplied simultaneously. The experimental intestinal tract (1 cm in length) was cut and placed into 20 ml of Tyrode's solution at a constant temperature of 37° C. with a continuous oxygen supply. One end of the intestine was fixed on the ventilation hook and the other end was connected to the muscle tone transducer and led to the computer interface. The muscle tone value of the ileal smooth muscle was recorded with a BL system. The experiment was carried out after the intestinal segment contraction became stable. […] The operation was repeated 8 times. The antispasmodic percentage was calculated according to the following formula. [formula]
# [4] = Accelerated stability test; format: physicochemical; settings: 40° C.±2° C., RH 75%±5%
# Experimental: The compound of the present disclosure was placed at a temperature of 40° C.±2° C. and a relative humidity of 75%±5% for 6 months, and samples were taken to determine for the descriptions, related substances, and contents.
# [5] = tested on: histamine-contracted isolated ileal smooth muscle of guinea pigs; test: Muscle tone of isolated ileal smooth muscle of guinea pigs contracted with histamine; design: species or system guinea pig; settings: 3 minutes after adding 0.05 mL compound to histamine-contracted ileum; x ± s, n = 8
# Experimental: as §1, with “using” for “according to”, “equation.” for “formula. [formula]”
# [6] = organic solvent or mixture, solvent isopropanol, read-out: Solubility, Isopropanol
# [7] = organic solvent or mixture, solvent methanol, read-out: Solubility, Methanol
# [8] = water, solvent water, read-out: Solubility, Water
# [9] = methanol, organic solvent or mixture, solvent methanol, read-out: Solubility, Methanol
# [10] = isopropanol, organic solvent or mixture, solvent isopropanol, read-out: Solubility, Isopropanol
Compound,"solubility [1, 8] [mg/mL]","solubility [1, 9] [mg/mL]","solubility [1, 10] [mg/mL]",further results
O=P(O)(O)OCCN1CCC(=C2c3ccc(Cl)cc3CCc3cccnc32)CC1 [Compound III-4],28,–,–,"solubility [1, 6]: 22 mg/mL; solubility [1, 7]: 38 mg/mL"
O=P(O)(O)OCCN1CCC(=C2c3ccc(F)cc3CCc3cccnc32)CC1 [Compound III-5],28,–,–,"solubility [1, 6]: 22 mg/mL; solubility [1, 7]: 40 mg/mL"
O=P(O)(O)OCCN1CCC(=C2c3ccc(Br)cc3CCc3cccnc32)CC1 [Compound III-6],28,–,–,"solubility [1, 6]: 22 mg/mL; solubility [1, 7]: 40 mg/mL"
O=P(O)(O)OCCCN1CCC(=C2c3ccc(Cl)cc3CCc3cccnc32)CC1 [Compound III-7],30,40,–,–
O=P(O)(O)OCCCN1CCC(=C2c3ccc(F)cc3CCc3cccnc32)CC1 [Compound III-8],30,40,22,Post-administration latency period [2]: 370.94 ± 50.29 s
O=P(O)(O)OCCCN1CCC(=C2c3ccc(Br)cc3CCc3cccnc32)CC1 [Compound III-9],30,40,22,–
O=P([O-])([O-])OCCN1CCC(=C2c3ccc(Cl)cc3CCc3cccnc32)CC1.[K+].[K+] [Compound IV-2],389,23,1,Content ([4]; Month 1): 99.6%; Content ([4]; Month 3): 99.5%
O=P(O)(O)OCCCCCN1CCC(=C2c3ccc(Cl)cc3CCc3cccnc32)CC1 [Compound IV-7],–,–,–,Content ([4]; Month 3): 99.5%
O=P(O)(O)OCOCCN1CCC(=C2c3ccc(Cl)cc3CCc3cccnc32)CC1 [Compound IV-8],–,–,–,Content ([4]; Month 3): 99.5%; Smooth muscle tone (g) After administration [5]: 1.19 ± 0.28 g
"OCCCCCCN1CCC(=C2c3ccc(Cl)cc3CCc3cccnc32)CC1 [Hydroxyhexyl desloratadine, Hydroxyhexyl Desloratadine]",–,–,–,Antispasmodic percentage (%) [5]: 58.30 ± 14.11%
"OCCCCCN1CCC(=C2c3ccc(Cl)cc3CCc3cccnc32)CC1 [Hydroxypentyl desloratadine, Hydroxypentyl Desloratadine]",–,–,–,Antispasmodic percentage (%) [5]: 58.53 ± 12.34%
"OCCCN1CCC(=C2c3ccc(Cl)cc3CCc3cccnc32)CC1 [Hydroxypropyl desloratadine, Hydroxypropyl Desloratadine]",–,–,–,Antispasmodic percentage (%) [5]: 58.77 ± 13.82%

# Second part, led by results:
"solubility [1, 8] [mg/mL]","solubility [1, 9] [mg/mL]","solubility [1, 10] [mg/mL]",Compound,further results
30,43,–,O=P(O)(O)OCCCCN1CCC(=C2c3ccc(Cl)cc3CCc3cccnc32)CC1 [Compound III-10],Antispasmodic percentage (%) [3]: 35.75 ± 19.99%
30,43,25,O=P(O)(O)OCCCCN1CCC(=C2c3ccc(F)cc3CCc3cccnc32)CC1 [Compound III-11],Antispasmodic percentage (%) [3]: 31.58 ± 18.30%
32,43,25,O=P(O)(O)OCCCCN1CCC(=C2c3ccc(Br)cc3CCc3cccnc32)CC1 [Compound III-12],–
32,44,–,O=P(O)(O)OCCCCCN1CCC(=C2c3ccc(Cl)cc3CCc3cccnc32)CC1 [Compound III-13],–
32,44,25,O=P(O)(O)OCCCCCN1CCC(=C2c3ccc(F)cc3CCc3cccnc32)CC1 [Compound III-14],Content ([4]; Month 2): 99.5%; Content ([4]; Month 3): 99.5%
32,44,25,O=P(O)(O)OCCCCCN1CCC(=C2c3ccc(Br)cc3CCc3cccnc32)CC1 [Compound III-15],–
30,42,25,O=P(O)(O)OCOCCCN1CCC(=C2c3ccc(Cl)cc3CCc3cccnc32)CC1 [Compound III-17],–
30,42,25,O=P(O)(O)OCOCCCCN1CCC(=C2c3ccc(Cl)cc3CCc3cccnc32)CC1 [Compound III-18],Content ([4]; Month 3): 99.5%
30,42,25,O=P(O)(O)OCOCCCCCN1CCC(=C2c3ccc(Cl)cc3CCc3cccnc32)CC1 [Compound III-19],–
432,44,–,O=P([O-])([O-])OCN1CCC(=C2c3ccc(Cl)cc3CCc3cccnc32)CC1.[Na+].[Na+] [Compound IV-1],–
–,20,1,O=P([O-])([O-])OCCCCN1CCC(=C2c3ccc(Cl)cc3CCc3cccnc32)CC1.[Na+].[Na+] [Compound IV-4],Content ([4]; Month 1): 99.6%; Content ([4]; Month 2): 99.6%; Content ([4]; Month 3): 99.6%
411,27,2,O=P([O-])([O-])OCOCCCN1CCC(=C2c3ccc(Cl)cc3CCc3cccnc32)CC1.[Na+].[Na+] [Compound IV-9],Content ([4]; Month 1): 99.7%; Content ([4]; Month 2): 99.7%; Content ([4]; Month 3): 99.7%
401,27,2,O=P([O-])([O-])OCOCCCCN1CCC(=C2c3ccc(Cl)cc3CCc3cccnc32)CC1.[Na+].[Na+] [Compound IV-10],–
390,27,2,O=P([O-])([O-])OCOCCCCCN1CCC(=C2c3ccc(Cl)cc3CCc3cccnc32)CC1.[Na+].[Na+] [Compound IV-11],Smooth muscle tone (g) After administration [5]: 1.18 ± 0.28 g
